Source: patent publication US5401748A, “2,14-disubstituted ergolines, their production and use in pharmaceutical compositions” (Schering Aktiengesellschaft, priority 1991, dated 1995)

System: central dopamine receptors
Test: Stereotypy-triggering activity in rats after one-time i.p. pretreatment (method of Horowski and Wachtel)
Type: in vivo, female Wistar rats
Settings: ip, rat
Experimental: The dopaminergic agonistic effect is determined, for example, with the help of method, described by Horowski and Wachtel, of the registration of stereotypies by observation of behavior (Eur. J. Pharmacol. 36: 373-383, 1976):
Immediately after intraperitoneal test substance or vehicle administration,female Wistar rats (90-110 g) are placed individually in observation cages made from transparent acrylic glass (25×19×13.5 cm). At 30, 60, 120, 240, 360 and 480 minutes after pretreatment, the presence of behavior stereotypies (chewing, licking, gnawing) is registered by observation of the animals for 2 minutes (i.e., of 30th-32nd, 60th-62nd, 120th-122nd minutes, etc.). Animals which during the 2-minute observation period show continuous chewing, licking and gnawing movements (longer than 30 seconds) are considered stereotypic.
The number of animals per treatment group with behavior stereotypies is determined during the various observation times. The different treatment groups consist of n=8 animals each. Average effective dose (ED50) is determined with 95% range of confidence for the various observation times with the help of probit analysis.
At 30, 60, 120, 240, 360 and 480 minutes after i.p. pretreatment with test substance or vehicle, the presence of behavior stereotypies in rats (chewing, licking, gnawing) was determined by observation for 2 minutes (i.e., of 30th-32nd, 60th-62nd, 120th-122nd minutes, etc.).

CCCN1C[C@@H](NC(=O)N(CC)CC)C[C@@H]2c3ccc(C)c4[nH]c(C)c(c34)C[C@H]21 [3-(2,14-Dimethyl-6-propyl-8α-ergolinyl)-1,1-diethylurea]
ED50 (0.5 h, 30 min, n=8, 95% range of confidence by probit analysis): 0.055 mg/kg | ED50 (1 h, 60 min, n=8, probit analysis): < 0.025 mg/kg | ED50 (2 h, 120 min, n=8, probit analysis): < 0.025 mg/kg | ED50 (4 h, 240 min, n=8, probit analysis): < 0.025 mg/kg | ED50 (6 h, 360 min, n=8, 95% range of confidence by probit analysis): 0.071 mg/kg | ED50 (8 h, 480 min, n=8, 95% range of confidence by probit analysis): 0.072 mg/kg
